Assays:
[1] = biological target: BTK (Homo sapiens (Human), UniProt Q06187); assay: BTK kinase inhibitory activity experiment (Caliper EZ reader conversion rate); format: biochemical; conditions: for IC50: in vitro kinase assay, 20 min incubation, class key in μM; for inhibitory activity on BTK (in words): summary of Table 1
Protocol: (§1) Experimental method: The 384-well plate was divided into compound wells (starting at 10 μM, diluted three times to produce 10 concentrations), positive control wells and negative control wells; kinase solution was added to compound wells and positive control wells, and 1×kinase buffer was added to negative control wells; the solution is next centrifuged for 30 seconds and incubated at room temperature for 10 min. Add 15 μL of the mixed solution of ATP and substrate, shake and mix well after centrifugation and incubate at room temperature (30 min for JAK3, 20 min for BTK). Add stop detection solution to stop the reaction, and read the conversion rate with Caliper EZ reader, Data analysis: The formula is as follows: […]
(§2) where Conversion %_sample is the conversion rate reading of the sample Conversion %_min is the average value of the negative control wells representing the conversion rate reading of the wells without enzyme addition; and Conversion %_max is the average value of the positive control wells representing the conversion rate reading of the wells without adding the compound. Fit the dose-response curve: Taking the log value of the concentration as the X-axis, and the percentage inhibition rate as the Y-axis, the dose-response curve was fitted using the log (inhibitor) vs. response-Variable slope of the software GraphPad Prism 5, so as to obtain the IC50 value of each compound on the enzyme activity.

[2] = biological target: JAK3 (Homo sapiens (Human), UniProt P52333); assay: JAK3 kinase inhibitory activity experiment (Caliper EZ reader conversion rate); format: biochemical; conditions: for IC50: in vitro kinase assay, 30 min incubation, class key in μM; for inhibitory activity on JAK3 (in words): summary of Table 1
Protocol: as §1, §2

[3] = test system: BaF3-TEL-JAK3 cells; assay: Proliferation inhibition of BaF3-TEL-JAK3 cells (Cell Titer-Glo, 72 h); format: cell-based; conditions: 72 h drug action, class key in μM
Protocol: (§3) Experimental procedure: A certain number of cells in the logarithmic growth phase were inoculated in a 96-well plate and cultured at 37° C. before adding drugs. After 72 h of drug action, after the 96-well cell plate was equilibrated to room temperature, 40 μL of Cell Titer-Glo® reagent was added to each well; each plate was then shaken for 2 min and allowed to stand for 10 min, the chemiluminescent signal was detected with an MD SpectraMax Paradigm microplate reader. Data analysis: The formula is as follows: […]
(§4) Max signal: DMSO signal; Min signal: medium signal, IC50 was calculated using GraphPad Prism 5.

[4] = test system: Daudi cells; assay: Proliferation inhibition of Daudi cells (Cell Titer-Glo, 72 h); format: cell-based; conditions: 72 h drug action, class key in μM
Protocol: as §3, §4

Sequence of JAK3 (P52333 whole entry): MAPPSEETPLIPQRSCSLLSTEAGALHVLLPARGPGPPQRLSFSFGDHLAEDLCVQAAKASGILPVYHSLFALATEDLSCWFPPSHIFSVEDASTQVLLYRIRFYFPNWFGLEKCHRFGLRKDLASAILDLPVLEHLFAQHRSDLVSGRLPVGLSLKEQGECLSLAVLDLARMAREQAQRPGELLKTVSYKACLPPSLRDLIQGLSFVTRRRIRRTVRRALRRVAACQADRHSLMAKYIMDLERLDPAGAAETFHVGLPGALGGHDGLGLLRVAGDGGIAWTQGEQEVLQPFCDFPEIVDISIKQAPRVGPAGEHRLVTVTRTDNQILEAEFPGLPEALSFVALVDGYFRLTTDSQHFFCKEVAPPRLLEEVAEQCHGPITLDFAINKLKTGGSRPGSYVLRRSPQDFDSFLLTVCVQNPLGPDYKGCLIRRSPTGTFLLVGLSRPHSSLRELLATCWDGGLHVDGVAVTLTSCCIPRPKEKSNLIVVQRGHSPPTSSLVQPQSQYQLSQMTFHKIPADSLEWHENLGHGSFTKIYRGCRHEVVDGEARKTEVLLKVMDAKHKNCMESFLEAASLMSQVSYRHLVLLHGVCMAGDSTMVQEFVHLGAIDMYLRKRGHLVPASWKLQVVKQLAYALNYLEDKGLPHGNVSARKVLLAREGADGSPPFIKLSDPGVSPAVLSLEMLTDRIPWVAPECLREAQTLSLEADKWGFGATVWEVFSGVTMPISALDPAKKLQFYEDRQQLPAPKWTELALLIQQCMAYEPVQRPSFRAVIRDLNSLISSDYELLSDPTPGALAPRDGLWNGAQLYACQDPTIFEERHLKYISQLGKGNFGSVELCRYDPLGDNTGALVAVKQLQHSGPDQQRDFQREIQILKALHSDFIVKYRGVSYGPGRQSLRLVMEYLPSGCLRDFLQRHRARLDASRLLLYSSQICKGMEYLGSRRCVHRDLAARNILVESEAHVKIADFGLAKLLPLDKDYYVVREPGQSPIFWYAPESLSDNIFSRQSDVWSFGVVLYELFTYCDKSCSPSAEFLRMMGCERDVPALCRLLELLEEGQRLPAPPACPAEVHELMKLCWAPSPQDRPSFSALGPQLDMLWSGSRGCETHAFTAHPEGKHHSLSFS
Sequence of BTK (Q06187 whole entry): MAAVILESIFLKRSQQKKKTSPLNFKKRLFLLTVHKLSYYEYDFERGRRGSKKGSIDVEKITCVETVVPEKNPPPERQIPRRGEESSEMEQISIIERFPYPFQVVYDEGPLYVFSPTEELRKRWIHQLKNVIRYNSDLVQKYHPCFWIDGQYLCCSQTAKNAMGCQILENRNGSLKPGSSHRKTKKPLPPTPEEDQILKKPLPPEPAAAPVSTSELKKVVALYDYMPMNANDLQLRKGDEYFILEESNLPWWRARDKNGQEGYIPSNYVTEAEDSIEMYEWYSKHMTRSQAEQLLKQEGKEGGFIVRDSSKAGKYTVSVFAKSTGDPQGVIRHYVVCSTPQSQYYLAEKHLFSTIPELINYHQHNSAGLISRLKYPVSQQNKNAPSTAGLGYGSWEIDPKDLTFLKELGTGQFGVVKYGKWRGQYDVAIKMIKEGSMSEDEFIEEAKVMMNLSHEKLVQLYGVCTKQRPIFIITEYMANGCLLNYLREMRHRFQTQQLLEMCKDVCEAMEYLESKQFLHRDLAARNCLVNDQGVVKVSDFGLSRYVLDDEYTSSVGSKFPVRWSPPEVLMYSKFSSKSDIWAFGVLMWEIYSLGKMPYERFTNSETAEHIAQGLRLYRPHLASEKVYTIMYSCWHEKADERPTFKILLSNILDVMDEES

| IC50 [1] [µM] | IC50 [2] [µM] | IC50 [3] [µM] | IC50 [4] [µM] | inhibitory activity on BTK (in words) [1] | inhibitory activity on JAK3 (in words) [2] | Structure (SMILES) |
| --- | --- | --- | --- | --- | --- | --- |
| 0.001 to 0.05 | 0.001 to 0.05 | 0.01 to 0.5 | 0.5 to 1 | – | – | C=CC(=O)N1CCC[C@@H](n2nc(-c3ccc(NC(=O)c4ccc(N(C)C)cc4)c4c3OCO4)c3c(N)ncnc32)C1 [I-13, (R)-N-(7-(1-(1-acryloylpiperidin-3)-4-amino-1H-pyrazolo[3,4-d]pyrimidin-3-)benzo[d][1,3]dioxoheterocyclopenten-4)-4-(dimethylamino)benzamide] |
| 0.001 to 0.05 | 0.05 to 0.5 | 0.5 to 1 | 0.5 to 1 | – | – | C=CC(=O)N1CCC[C@@H](n2nc(-c3ccc(NC(=O)c4ccccc4)c4c3OCO4)c3c(N)ncnc32)C1 [I-1, (R)-N-(7-(1-(1-acryloylpiperidin-3-yl)-4-amino-1H-pyrazolo[3,4-d]pyrimidin-3-)benzo[d][1,3]dioxoheterocyclopenten-4-)benzamide] |
| 0.001 to 0.05 | 0.001 to 0.05 | 0.5 to 1 | 0.5 to 1 | – | – | C=CC(=O)N1CCC[C@@H](n2nc(-c3ccc(NC(=O)c4ccc5ccccc5c4)c4c3OCO4)c3c(N)ncnc32)C1 [I-18, (R)-N-(7-(1-(1-acryloylpiperidin-3)-4-amino-1H-pyrazolo[3,4-d]pyrimidin-3-)benzo[d][1,3]dioxoheterocyclopenten-4)-2-naphthalenecarboxamide] |
| 0.001 to 0.05 | 0.001 to 0.05 | 0.5 to 1 | 0.5 to 1 | excellent inhibitory activity | excellent inhibitory activity | C=CC(=O)N1CCC[C@@H](n2nc(-c3ccc(NC(=O)c4cccc(Cl)c4)c4c3OCO4)c3c(N)ncnc32)C1 [I-6, (R)-N-(7-(1-(1-acryloylpiperidin-3)-4-amino-1H-pyrazolo[3,4-d]pyrimidin-3-)benzo[d][1,3]dioxoheterocyclopenten-4)-3-chlorobenzamide] |
| 0.001 to 0.05 | 0.001 to 0.05 | 0.01 to 0.5 | 0.01 to 0.5 | – | – | C=CC(=O)N1CCC[C@@H](n2nc(-c3ccc(NC(=O)c4sc5ccccc5c4Cl)c4c3OCO4)c3c(N)ncnc32)C1 [I-16, (R)-N-(7-(1-(1-acryloylpiperidin-3)-4-amino-1H-pyrazolo[3,4-d]pyrimidin-3-yl)benzo[d][1,3]dioxoheterocyclopenten-4-)-3-chlorobenzo[b]thiophene-2-formamide] |
| 0.001 to 0.05 | 0.001 to 0.05 | 0.01 to 0.5 | 0.01 to 0.5 | excellent inhibitory activity | excellent inhibitory activity | C=CC(=O)N1CCC[C@@H](n2nc(-c3ccc(NC(=O)c4ccc(C(C)(C)C)cc4)c4c3OCO4)c3c(N)ncnc32)C1 [I-11, (R)-N-(7-(1-(1-acryloylpiperidin-3)-4-amino-1H-pyrazolo[3,4-d]pyrimidin-3-)benzo[d][1,3]dioxoheterocyclopenten-4)-4-tert-butylbenzamide] |

| Structure (SMILES) | IC50 [1] [µM] | IC50 [2] [µM] | IC50 [3] [µM] | IC50 [4] [µM] | inhibitory activity on BTK (in words) [1] | inhibitory activity on JAK3 (in words) [2] |
| --- | --- | --- | --- | --- | --- | --- |
| C=CC(=O)N1CCC[C@@H](n2nc(-c3ccc(NC(=O)c4ccc(-c5ccccc5)cc4)c4c3OCO4)c3c(N)ncnc32)C1 [I-24, (R)-N-(7-(1-(1-acryloylpiperidin-3-yl)-4-amino-1H-pyrazolo[3,4-d]pyrimidin-3-)benzo[d][1,3]dioxoheterocyclopenten-4)-[1,1′-Biphenyl]-4-carboxamide] | 0.001 to 0.05 | 0.05 to 0.5 | 0.01 to 0.5 | 0.01 to 0.5 | – | – |
| C=CC(=O)N1CCC[C@@H](n2nc(-c3ccc(NC(=O)c4cccs4)c4c3OCO4)c3c(N)ncnc32)C1 [I-2, (R)-N-(7-(1-(1-acryloylpiperidin-3)-4-amino-1H-pyrazolo[3,4-d]pyrimidin-3-yl)benzo[d][1,3]dioxoheterocyclopenten-4-)thiophene-2-formamide] | 0.001 to 0.05 | 0.05 to 0.5 | 0.5 to 1 | 0.5 to 1 | – | – |
